{"source": "patent US7075582B2", "about": "“Methods for identifying and using MarR family polypeptide binding compounds” (Paratek Pharmaceuticals, Inc., priority 2001, dated 2006)", "key": {"MarR [1]": {"biological_target": "T1, MarR (Escherichia coli, UniProt P27245)", "T1 sequence (P27245 whole entry)": "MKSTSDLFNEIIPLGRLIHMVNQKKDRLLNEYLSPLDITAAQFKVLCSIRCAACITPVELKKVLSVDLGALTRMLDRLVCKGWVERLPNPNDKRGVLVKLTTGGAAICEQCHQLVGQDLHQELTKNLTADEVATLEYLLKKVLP", "conditions": "salicylate at millimolar concentrations; cited from earlier work"}, "MarR [2]": {"biological_target": "T1, MarR", "conditions": "salicylate at millimolar concentrations; cited from earlier work", "remark": "listed apart in the source"}, "[3]": {"biological_target": "MarR (wild type, Escherichia coli), one subunit of the MarR homodimer (E. coli)", "assay": "X-ray crystal structure, MarR-salicylate co-crystal"}}}
{"molecule": "O=C([O-])c1ccccc1O.[Na+]", "note": "[sodium salicylate]", "values": [{"measurement": "MarR activity in whole cells", "setting": "MarR [1]", "result": "inhibit MarR activity"}, {"measurement": "MarR activity in vitro", "setting": "MarR [2]", "result": "inhibit MarR activity"}]}
{"molecule": "MarR (wild type, Escherichia coli), one subunit of the MarR homodimer", "values": [{"measurement": "buried surface area (N-/C-terminal hydrophobic core)", "setting": "[3]", "result": 3570, "unit": "Å^2"}, {"measurement": "total buried surface area for the whole dimer", "setting": "[3]", "result": 3700, "unit": "Å^2"}]}
